Usually IC50 stands for the point on the concentration scale where inhibition reaches its midpoint. A low value points to inhibition by little substance.

The target in one assay is IRAK4 (Homo sapiens (Human), UniProt Q9NWZ3). Nature of the assay: Z'-LYTE assay (ThermoFisher) against IRAK4. As to conditions: IRAK4/Ser/Thr 07, 60 minutes at room temperature. Type of assay: biochemical. The procedure: To measure the 050 values of compounds herein against IRAK4, a Z′-LYTE assay (ThermoFisher) was used. Briefly, 2.5 μL. of different concentrations of the compounds in 1% DMSO were added to 2.4 μL kinase buffer (50 mM HEPES pH 7.5, 0.01% BRIJ-35, 10 mM MgCl2, 1 mM EGTA) in each well of a 384-well plate (Corning Cat. #3676). 5 μL of 2×IRAK4/Ser/Thr 07 mixture (prepared in 50 mM HEPES pH 7.5, 0.01% BRIJ-35, 10 mM MnCl2, 2 mM OTT, and 0.02% NaN3) and 2.5 μL of 4×ATP solution (4×ATP, 50 mM HEPES, pH 7.5, 0.01% BRIJ-35, 10 mM MgCl2, 1 mM EGTA) were added to each well. The plate was shaken for 30 seconds, and then incubated at room temperature for 60 minutes. 5 μL of a 1:100000 dilution of Development Reagent A was added to each well. The plate was shaken for 30 seconds and incubated for 60 minutes at room temperature. The plate was subsequently read on a fluorescence plate reader, and the emissions ratio was calculated to determine the ratio of Ser/Thr 07 phosphorylated by the reaction. Emissions Ratio=Coumarin Emission (443 nm)/Flourescein Emission (520 nm).

Another assay has as its target IRAK1 (Homo sapiens (Human), UniProt P51617). The assay is described as follows: Adapta Universal Kinase Assay (ThermoFisher) against IRAK1. Type of assay: biochemical. As to conditions: IRAK1/Histone H3 (1-20) peptide, 60 minutes at room temperature. The method, then: To measure the IC50 values of the compounds herein against IRAK1, the Adapta Universal Kinase Assay (ThermoFisher) was used. Briefly, 100 nL of different concentrations of the compounds in 100% DMSO were added to each well of a 384-well plate (Corning Cat. #4512). 2.4 μL of 30 mM HEPES, 2.5 μL of 4×ATP solution (in water), and 5 μL of 2× IRAK1/Histone H3 (1-20) peptide mixture (prepared in 50 mM HEPES pH 7.5, 0.01% BRIJ-35, 10 mM MgCl2, 1 mM EGTA) were added to each well. The plate was shaken for 30 seconds and centrifuged for 1 minute at 1000×g. The plate was then incubated at room temperature for 60 minutes. 5 μL of Detection Mix was added to each well. The plate was shaken for 30 seconds and centrifuged for 1 minute at 1000×g. The plate was then incubated at room temperature for 60 minutes. The plate was subsequently read on a fluorescence plate reader, and the emissions ratio was calculated to determine the ratio of ATP to ADP. Emissions Ratio=AF647 Emission (665 nm)/Europium Emission (615 nm).

IRAK4, sequence (Q9NWZ3 whole entry): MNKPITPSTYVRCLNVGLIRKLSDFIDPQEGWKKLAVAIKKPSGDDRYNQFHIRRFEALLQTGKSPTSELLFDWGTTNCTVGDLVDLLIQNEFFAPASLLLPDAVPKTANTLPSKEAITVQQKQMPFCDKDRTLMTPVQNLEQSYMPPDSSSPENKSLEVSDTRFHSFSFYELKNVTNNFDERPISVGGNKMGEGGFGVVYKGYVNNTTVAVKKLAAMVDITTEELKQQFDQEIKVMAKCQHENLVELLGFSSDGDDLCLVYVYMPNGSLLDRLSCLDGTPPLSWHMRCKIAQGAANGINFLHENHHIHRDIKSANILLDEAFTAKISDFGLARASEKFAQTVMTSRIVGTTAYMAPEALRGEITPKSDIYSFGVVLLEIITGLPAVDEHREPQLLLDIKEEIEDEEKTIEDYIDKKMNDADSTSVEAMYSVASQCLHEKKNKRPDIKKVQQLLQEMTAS
IRAK1, sequence (P51617 whole entry): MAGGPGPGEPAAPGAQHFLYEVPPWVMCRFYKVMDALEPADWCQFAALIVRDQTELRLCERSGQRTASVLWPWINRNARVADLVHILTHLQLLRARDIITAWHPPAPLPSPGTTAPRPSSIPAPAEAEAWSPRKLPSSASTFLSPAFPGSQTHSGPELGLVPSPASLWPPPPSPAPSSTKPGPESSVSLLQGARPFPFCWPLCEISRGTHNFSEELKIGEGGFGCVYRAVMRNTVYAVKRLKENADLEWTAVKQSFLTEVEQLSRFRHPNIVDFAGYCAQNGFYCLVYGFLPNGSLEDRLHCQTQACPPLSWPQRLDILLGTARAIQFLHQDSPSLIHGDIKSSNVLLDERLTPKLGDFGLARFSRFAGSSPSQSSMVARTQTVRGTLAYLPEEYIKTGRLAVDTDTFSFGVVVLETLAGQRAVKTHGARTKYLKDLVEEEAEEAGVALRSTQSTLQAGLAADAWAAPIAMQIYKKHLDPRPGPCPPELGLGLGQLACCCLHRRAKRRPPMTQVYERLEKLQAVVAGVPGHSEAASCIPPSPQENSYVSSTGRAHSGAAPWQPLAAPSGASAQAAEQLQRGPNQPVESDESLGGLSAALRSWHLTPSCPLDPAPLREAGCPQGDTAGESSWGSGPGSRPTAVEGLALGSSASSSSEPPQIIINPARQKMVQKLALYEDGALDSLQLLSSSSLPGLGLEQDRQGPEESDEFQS

Turning to `C=CC(=O)N[C@@H]1CCCC(C(=O)Nc2ccc(NC(=O)c3cccc(-c4ccn[nH]4)n3)cc2F)C1` (stereo partly shown) [Compound 001], the results for the IC50 on IRAK4 and at IRAK1 were above 10000 nM and 129 nM, respectively.

Consider `C=CC(=O)N[C@@H]1CCC[C@H](C(=O)Nc2ccc(NC(=O)c3cccc(-c4ccn[nH]4)n3)nc2)C1` [Compound 002, N-(5-((1S,3R)-3-acrylamidocyclohexane-1-carboxamido)pyridin-2-yl)-6-(1H-pyrazol-5-yl)-picolinamide], for which the IC50 was above 10000 nM on IRAK4 and 257 nM at IRAK1.

For `C=CC(=O)N[C@@H]1CCCC(C(=O)Nc2ccc(NC(=O)c3cccc(-c4ccn[nH]4)n3)cc2C)C1` (stereo partly shown) [Compound 003], the IC50 is above 10000 nM on IRAK4 and 671 nM on IRAK1.

For the compound `C=CC(=O)N[C@H]1CCCC(C(=O)Nc2ccc(NC(=O)c3cccc(-c4ccn[nH]4)n3)nc2)C1` (stereo partly shown) [Compound 005], the values for the IC50 at IRAK4 and against IRAK1 were above 10000 nM and 189 nM, respectively.

Turning to `C=CC(=O)N[C@@H]1CNC[C@H](C(=O)Nc2ccc(NC(=O)c3cccc(-c4ccn[nH]4)n3)nc2)C1` [Compound 006, N-(5-((3R,5S)-5-acrylamidopiperidine-3-carboxamido)pyridin-2-yl)-6-(1H-pyrazol-5-yl)-picolinamide], the figures for the IC50 on IRAK4 and on IRAK1 were 4000 nM and 14 nM, respectively.

Take `C=CC(=O)N[C@@H]1CNCC(C(=O)Nc2ccc(NC(=O)c3cccc(-c4ccn[nH]4)n3)cc2F)C1` (stereo partly shown) [Compound 007]: the results for the IC50 at IRAK4 and at IRAK1 were above 10000 nM and 150 nM, respectively.

With `C=CC(=O)N[C@H]1C[C@@H](C(=O)Nc2ccc(NC(=O)c3cccc(-c4ccn[nH]4)n3)nc2)CN(C)C1` [Compound 013, N-(5-((3R,5S)-5-acrylamido-1-methylpiperidine-3-carboxamido)pyridin-2-yl)-6-(1H-pyrazol-5-yl)picolinamide], the values for the concentration for half-maximal inhibition (IC50) on IRAK4 and on IRAK1 were above 10000 nM and 18.5 nM, respectively.

With `C=CC(=O)NC12CC(C(=O)Nc3ccc(NC(=O)c4cccc(-c5ccn[nH]5)n4)cc3F)(C1)C2` [Compound 016], the figures for the IC50 against IRAK4 and on IRAK1 were 9930 nM and 301 nM, respectively.

Turning to `C=CC(=O)N1CC2(CC(n3cc(-c4ccc(NC(=O)c5cccc(-c6cnoc6)n5)nc4)nn3)C2)C1` [Compound 024, N-(5-(1-(2-acryloyl-2-azaspiro[3,3]heptan-6-yl)-1H-1,2,3-triazol-4-yl)pyridin-2-yl)-6-(isoxazol-4-yl)picolinamide], the IC50 on IRAK4 was 3330 nM; against IRAK1, 612 nM.

Consider `C=CC(=O)N[C@@H]1CCC[C@H](C(=O)Nc2ccc(NC(=O)c3cccc(-c4ccn[nH]4)n3)cc2)C1` [Compound 026, N-(4-((1 S,3R)-3-acrylamidocyclohexane-1-carboxamido)phenyl)-6-(1H-pyrazol-5-yl)-picolinamide], for which the IC50 against IRAK4 was above 10000 nM; against IRAK1, 68.1 nM.

For the compound `C=CC(=O)N1CCC[C@H](C(=O)Nc2ccc(NC(=O)c3cccc(-c4ccn[nH]4)n3)nc2)C1` [Compound 027, (S)-N-(5-(1-acryloylpiperidine-3-carboxamido)pyridin-2-yl)-6-(1H-pyrazol-5-yl)picolinamide], the IC50 amounted to 1870 nM on IRAK4 and 6.37 nM at IRAK1.

Turning to `C=CC(=O)N1CCC[C@@H](C(=O)Nc2ccc(NC(=O)c3cccc(-c4ccn[nH]4)n3)nc2)C1` [Compound 028, (R)-N-(5-(1-acryloylpiperidine-3-carboxamido)pyridin-2-yl)-6-(1H-pyrazol-5-yl)picolinamide], the IC50 was found to be 722 nM against IRAK4 and 12.5 nM at IRAK1.

`C=CC(=O)N1CCC[C@H](C(=O)Nc2ccc(NC(=O)c3cccc(-c4cnoc4)n3)nc2)C1` [Compound 029, (S)-N-(5-(1-acryloylpiperidine-3-carboxamido)pyridin-2-yl)-6-(isoxazol-4-yl)picolinamide]: the figures for the IC50 on IRAK4 and against IRAK1 were above 10000 nM and 658 nM, respectively.

Take `C=CC(=O)N1CCC[C@@H](C(=O)Nc2ccc(NC(=O)c3cccc(-c4cnoc4)n3)nc2)C1` [Compound 030, (R)-N-(5-(1-acryloylpiperidine-3-carboxamido)pyridin-2-yl)-6-(isoxazol-4-yl)picolinamide]: the IC50 against IRAK4 came out at 3330 nM; on IRAK1, 399 nM.

In the case of `C=CC(=O)N1CCC[C@H](C(=O)Nc2ccc(NC(=O)c3cccc(-c4ccn[nH]4)n3)cc2F)C1` [Compound 031, (S)-N-(4-(1-acryloylpiperidine-3-carboxamido)-3-fluorophenyl)-6-(1H-pyrazol-5-yl)picolinamide], the IC50 was 1110 nM against IRAK4 and 40.1 nM against IRAK1.

On to `C=CC(=O)N1CCC[C@H](C(=O)Nc2ccc(NC(=O)c3cccc(-c4cnoc4)n3)cc2F)C1` [Compound 032, (S)-N-(4-(1-acryloylpiperidine-3-carboxamido)-3-fluorophenyl)-6-(isoxazol-4-yl)picolinamide], for which the IC50 was above 10000 nM on IRAK4 and 1190 nM at IRAK1.

Turning to `C=CC(=O)N1CCC[C@@H](C(=O)Nc2ccc(NC(=O)c3cccc(-c4ccn[nH]4)n3)cc2F)C1` [Compound 033, (R)-N-(4-(1 acryloylpiperidine-3-carboxamido)-3-fluorophenyl)-6-(1H-pyrazol-5-yl)picolinamide], the half-inhibitory concentration (IC50) against IRAK4 was determined as 2510 nM; against IRAK1, 74.2 nM.

As for `C=CC(=O)N1CCC[C@@H](C(=O)Nc2ccc(NC(=O)c3cccc(-c4cnoc4)n3)cc2F)C1` [Compound 034, (R)-N-(4-(1-acryloylpiperidine-3-carboxamido)-3-fluorophenyl)66-(isoxazol-4-yl)picolinamide], the IC50 came out at 2010 nM at IRAK4 and 344 nM against IRAK1.

Regarding `C=CC(=O)N[C@H]1C[C@@H](C(=O)Nc2ccc(NC(=O)c3cccc(-c4ccn[nH]4)n3)nc2)CN(CC(F)(F)F)C1` [Compound 038, N-(5-((3R,5S)-5-acrylamido-1-(2,2,2-trifluoroethyl)piperidine-3-carboxamido)pyridin-2-yl)-6-(1H-pyrazol-5-yl)picolinamide], the IC50 at IRAK4 was above 10000 nM; on IRAK1 it was 12.1 nM.

As for `C=CC(=O)N[C@H]1C[C@@H](C(=O)Nc2ccc(NC(=O)c3cccc(-c4ccn[nH]4)n3)nc2)CN(CC(F)F)C1` [Compound 039, N-(5-((3R,5S)-5-acrylamido-1-(2,2-difluorethyl)piperidine-3-carboxamido)pyridin-2-yl)-6-(1H-pyrazol-5-yl)picolinamide], the IC50 was above 10000 nM on IRAK4 and 14.9 nM at IRAK1.

Source of the values: US20240043405A1, “POTENT AND SELECTIVE IRREVERSIBLE INHIBITORS OF IRAK1” (Dana-Farber Cancer Institute, Inc., priority 2020, published 2024).
